Experimental data from ChEMBL document CHEMBL1129947, “(+)-7-Deaza-5'-noraristeromycin as an anti-trypanosomal agent” (J Med Chem, 1997).

Experiments:
Trypanosoma brucei [1] = experiment: In vitro inhibitory concentration against Trypanosoma brucei LAB 110 EATRO test strain; format: functional, organism-based
Adenosylhomocysteinase = Adenosylhomocysteinase (Mus musculus, UniProt P50247); experiment: In vitro inhibitory concentration against purified S-Adenosyl-homocysteine hydrolase isolated from murine L929 cells
Trypanosoma brucei [2] = experiment: In vitro inhibitory concentration against Trypanosoma brucei rhodesiense strain KETRI 269; format: functional, organism-based
Trypanosoma brucei [3] = experiment: In vitro inhibitory concentration against Trypanosoma brucei rhodesiense strain KETRI 243; format: functional, organism-based
Trypanosoma brucei [4] = experiment: In vitro inhibitory concentration against Trypanosoma brucei rhodesiense strain KETRI 243-As-103; format: functional, organism-based

Sequence of Adenosylhomocysteinase (P50247 whole entry): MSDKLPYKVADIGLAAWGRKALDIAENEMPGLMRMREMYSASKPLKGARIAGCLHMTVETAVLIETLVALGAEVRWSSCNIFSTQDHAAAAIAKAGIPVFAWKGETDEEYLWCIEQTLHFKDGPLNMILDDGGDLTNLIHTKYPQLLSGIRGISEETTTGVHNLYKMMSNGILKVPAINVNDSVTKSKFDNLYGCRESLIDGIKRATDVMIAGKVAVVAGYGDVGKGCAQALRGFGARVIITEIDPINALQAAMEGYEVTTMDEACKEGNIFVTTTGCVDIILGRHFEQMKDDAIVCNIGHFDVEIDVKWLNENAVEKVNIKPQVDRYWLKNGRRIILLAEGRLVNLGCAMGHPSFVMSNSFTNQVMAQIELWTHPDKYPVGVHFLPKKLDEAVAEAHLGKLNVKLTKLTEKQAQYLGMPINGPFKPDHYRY

Row | IC50 (Trypanosoma brucei [1]) [nM] | IC50 (Adenosylhomocysteinase) [nM] | IC50 (Trypanosoma brucei [2]) [nM] | IC50 (Trypanosoma brucei [3]) [nM] | IC50 (Trypanosoma brucei [4]) [nM] | Compound
1 | 165 | > 500000 | 165 | 165 | 5300 | Nc1ncnc2c1ccn2[C@H]1C[C@@H](O)[C@H](O)[C@@H]1O
2 |  | > 500000 |  |  |  | Nc1ncnc2c1ccn2[C@@H]1C[C@H](O)[C@@H](O)[C@H]1O
